Data published in US10329286B2, “FXR (NR1H4) modulating compounds” (Gilead Sciences, Inc., priority 2016, dated 2019).
Like-named read-outs stand apart in the source and are kept apart here.

Key:
[1] = molecular target: human FXR alpha ligand binding domain (Homo sapiens (Human), UniProt Q96RI1); assay: FRET activity assay (LANCE; ligand mediated FXR-LBD / SRC-1 cofactor peptide interaction); format: biochemical
Protocol: Determination of a ligand mediated cofactor peptide interaction to quantify ligand binding to the nuclear receptor FXR was performed as follows.
Preparation of human FXR alpha ligand binding domain: The human FXRalpha LBD was expressed in E. coli strain BL21(DE3) as an N-terminally GST tagged fusion protein. The DNA encoding the FXR ligand binding domain was cloned into vector pDEST15 (Invitrogen). Expression was under control of an IPTG inducible T7 promoter. The amino acid boundaries of the ligand binding domain were amino acids 187-472 of Database entry NM_005123 (RefSeq).
Expression and purification of the FXR-LBD: An overnight preculture of a transformed E. coli strain was diluted 1:20 in LB-Ampicillin medium and grown at 30° C. to an optical density of OD600=0.4-0.6. Gene expression was then induced by addition of 0.5 mM IPTG. Cells were incubated an additional 6 h at 30° C., 180 rpm. Cells were collected by centrifugation (7000×g, 7 min, rt). Per liter of original cell culture, cells were resuspended in 10 mL lysis buffer (50 mM Glucose, 50 mM Tris pH 7.9, 1 mM EDTA and 4 mg/mL lysozyme) and left on ice for 30 min. Cells were then subjected to sonication and cell debris removed via centrifugation (22000×g, 30 min, 4° C.). Per 10 mL of supernatant 0.5 mL prewashed Glutathione 4B sepharose slurry (Qiagen) was added and the suspension kept slowly rotating for 1 h at 4° C. Glutathione 4B sepharose beads were pelleted by centrifugation (2000×g, 15 sec, 4° C.) and washed twice in wash buffer (25 mM Tris, 50 mM KCl, 4 mM MgCl2 and 1M NaCl). The pellet was resuspended in 3 mL elution buffer per liter of original culture (elution buffer: 20 mM Tris, 60 mM KCl, 5 mM MgCl2 and 80 mM glutathione added immediately prior to use as powder). The suspension was left rotating for 15 min at 4° C., the beads pelleted and eluted again with half the volume of elution buffer than the first time. The eluates were pooled and dialysed overnight in 20 mM Hepes buffer (pH 7.5) containing 60 mM KCl, 5 mM MgCl2 as well as 1 mM dithiothreitol and 10% (v/v) glycerol. The protein was analysed by SDS-Page.
The method measures the ability of putative ligands to modulate the interaction between the purified bacterial expressed FXR ligand binding domain (LBD) and a synthetic biotinylated peptide based on residues 676-700 of SRC-1 (LCD2, 676-700). The sequence of the peptide used was B-[…]-COOH (SEQ ID NO: 1) where the N-terminus was biotinylated (B). The ligand binding domain (LBD) of FXR was expressed as fusion protein with GST in BL-21 cells using the vector pDEST15. Cells were lysed by sonication, and the fusion proteins purified over glutathione sepharose (Pharmacia) according to the manufacturers instructions. For screening of compounds for their influence on the FXR-peptide interaction, the Perkin Elmer LANCE technology was applied. This method relies on the binding dependent energy transfer from a donor to an acceptor fluorophor attached to the binding partner of interest. For ease of handling and reduction of background from compound fluorescence LANCE technology makes use of generic fluorophore labels and time resolved detection.
Assays were done in a final volume of 25 μL in a 384 well plate, in a Tris-based buffer (20 mM Tris-HCl pH 7.5; 60 mM KCl, 5 mM MgCl2; 35 ng/μL BSA), containing 20-60 ng/well recombinantly expressed FXR-LBD fused to GST, 200-600 nM N-terminally biotinylated peptide, representing SRC1 aminoacids 676-700, 200 ng/well Streptavidin-x1APC conjugate (Prozyme) and 6-10 ng/well Eu W1024-antiGST (Perkin Elmer). DMSO content of the samples was kept at 1%. After generation of the assay mix and diluting the potentially FXR modulating ligands, the assay was equilibrated for 1 h in the dark at rt in FIA-plates black 384 well (Greiner). The LANCE signal was detected by a Perkin Elmer VICTOR2VTM Multilabel Counter. The results were visualized by plotting the ratio between the emitted light at 665 and 615 nm. […]

[2] = molecular target: FXR ligand binding domain (Homo sapiens (Human), UniProt Q96RI1); assay: Mammalian one hybrid (M1H) Gal4 reporter gene assay in HEK293 cells; format: cell-based
Protocol: Determination of a ligand mediated Gal4 promoter driven transactivation to quantify ligand binding mediated activation of FXR was performed as follows.
The cDNA part encoding the FXR ligand binding domain was cloned into vector pCMV-BD (Stratagene) as a fusion to the yeast GAL4 DNA binding domain under the control of the CMV promoter. […] The plasmid pFR-Luc (Stratagene) was used as the reporter plasmid, containing a synthetic promoter with five tandem repeats of the yeast GAL4 binding sites, driving the expression of the Photinus pyralis (American firefly) luciferase gene as the reporter gene. In order to improve experimental accuracy the plasmid pRL-CMV (Promega) was cotransfected. pRL-CMV contains the constitutive CMV promoter, controlling the expression of the Renilla reniformis luciferase. All Gal4 reporter gene assays were done in HEK293 cells (obtained from DSMZ, Braunschweig, Germany) grown in MEM with L-Glutamine and Earle's BSS supplemented with 10% fetal bovine serum, 0.1 mM nonessential amino acids, 1 mM sodium pyruvate, and 100 units Penicilin/[…] per mL at 37° C. in 5% CO2. Medium and supplements were obtained from Invitrogen. For the assay, […] cells were plated per well in 96 well plates in 100 μL per well MEM without Phenol Red and L-Glutamine and with Earle's BSS supplemented with 10% charcoal/dextran treated FBS (HyClone, South Logan, Utah), 0.1 mM nonessential amino acids, 2 mM glutamine, 1 mM sodium pyruvate, and 100 units Penicilin/[…] per mL, incubated at 37° C. in 5% CO2. The following day the cells were >90% confluence. […] MEM with the same composition as used for plating cells was added 2-4 h after addition of transfection mixture. Then compound stocks, prediluted in MEM were added (final vehicle concentration not exceeding 0.1%). […] All experiments were done in triplicates.

[3] = GST-FXR-LBD, biotinylated SRC-1 peptide 676-700, read-out: FRET EC50
[4] = Gal4-FXR-LBD luciferase reporter, HEK293 cells, 16 h, read-out: M1H EC50

Chain of FXR ligand binding domain (Q96RI1 other isoform, or with tags, fused parts or gaps): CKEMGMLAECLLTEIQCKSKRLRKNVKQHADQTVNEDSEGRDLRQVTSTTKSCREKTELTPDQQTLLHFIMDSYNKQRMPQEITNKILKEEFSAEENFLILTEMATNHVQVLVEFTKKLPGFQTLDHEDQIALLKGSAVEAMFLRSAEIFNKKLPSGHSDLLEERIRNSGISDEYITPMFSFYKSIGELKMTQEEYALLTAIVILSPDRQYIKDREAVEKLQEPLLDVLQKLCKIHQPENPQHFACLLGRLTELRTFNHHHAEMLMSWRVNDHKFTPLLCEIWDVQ
Chain of human FXR alpha ligand binding domain (Q96RI1 other isoform, or with tags, fused parts or gaps): as above

Row | EC50 [1] [nM] | EC50 [2] [nM] | SMILES | EC50 [1, 3] [nM] | EC50 [2, 4] [nM]
1 | 14 | 774 | O=C(O)c1ccnc(N2CC(O)(c3ccc(OCc4c(-c5c(Cl)cccc5Cl)noc4C4CC4)cc3Cl)C2)c1 [Comparative Compound 1, reference compound] | – | –
2 | – | – | O=C(O)c1ccnc(N2CC(O)(c3ccc(OCc4c(-c5c(Cl)cncc5Cl)noc4C4CC4)cc3Cl)C2)c1 [Comparative Compound 2, reference compound] | 48 | 744
3 | – | – | O=C(O)c1cc(N2CC(O)(c3ccc(OCc4c(-c5c(Cl)cccc5Cl)noc4C4CC4)cc3Cl)C2)nc(C(F)(F)F)c1 [Comparative Compound 3, reference compound] | 47 | 131
4 | – | – | O=C(O)c1ccc(N2CC(O)(c3ccc(OCc4c(-c5c(Cl)cncc5Cl)noc4C4CC4)cc3Cl)C2)nc1 [Example 1, 6-(3-(2-chloro-4-((5-cyclopropyl-3-(3,5-dichloropyridin-4-yl)isoxazol-4-yl)methoxy)phenyl)-3-hydroxyazetidin-1-yl)nicotinic acid] | 6.1 | 95
5 | – | – | O=C(O)c1ccc(N2CC(O)(c3ccc(OCc4c(-c5c(Cl)cccc5Cl)noc4C4CC4)cc3Cl)C2)nc1 [Example 2, 6-(3-(2-chloro-4-((5-cyclopropyl-3-(2,6-dichlorophenyl)isoxazol-4-yl)methoxy)phenyl)-3-hydroxyazetidin-1-yl)nicotinic acid] | 2.6 | 7.1
6 | – | – | Cc1nc(N2CC(O)(c3ccc(OCc4c(-c5c(Cl)cccc5Cl)noc4C4CC4)cc3Cl)C2)ccc1C(=O)O [Example 3, 6-(3-(2-chloro-4-((5-cyclopropyl-3-(2,6-dichlorophenyl)isoxazol-4-yl)methoxy)phenyl)-3-hydroxyazetidin-1-yl)-2-methylnicotinic acid] | 4.4 | 6.9
7 | – | – | Cc1cc(C(=O)O)cnc1N1CC(O)(c2ccc(OCc3c(-c4c(Cl)cccc4Cl)noc3C3CC3)cc2Cl)C1 [Example 4, 6-(3-(2-chloro-4-((5-cyclopropyl-3-(2,6-dichlorophenyl)isoxazol-4-yl)methoxy)phenyl)-3-hydroxyazetidin-1-yl)-5-methylnicotinic acid] | 3.9 | 5.1
8 | – | – | O=C(O)c1cnc(N2CC(O)(c3ccc(OCc4c(-c5c(Cl)cccc5Cl)noc4C4CC4)cc3Cl)C2)c(F)c1 [Example 5, 6-(3-(2-chloro-4-((5-cyclopropyl-3-(2,6-dichlorophenyl)isoxazol-4-yl)methoxy)phenyl)-3-hydroxyazetidin-1-yl)-5-fluoronicotinic acid] | 4.8 | 4.5
9 | – | – | O=C(O)c1ccc(N2CC(O)(c3ccc(OCc4c(-c5c(Cl)cccc5Cl)noc4C4CC4)cc3Cl)C2)nc1C(F)(F)F [Example 6, 6-(3-(2-chloro-4-((5-cyclopropyl-3-(2,6-dichlorophenyl)isoxazol-4-yl)methoxy)phenyl)-3-hydroxyazetidin-1-yl)-2-(trifluoromethyl)nicotinic acid] | 3.1 | 56
10 | – | – | Cc1cc(N2CC(O)(c3ccc(OCc4c(-c5c(Cl)cccc5Cl)noc4C4CC4)cc3Cl)C2)ncc1C(=O)O [Example 7, 6-(3-(2-chloro-4-((5-cyclopropyl-3-(2,6-dichlorophenyl)isoxazol-4-yl)methoxy)phenyl)-3-hydroxyazetidin-1-yl)-4-methylnicotinic acid] | 8.5 | 6.7
11 | – | – | COc1cccc(OC)c1-c1noc(C2CC2)c1COc1ccc(C2(O)CN(c3ncc(C(=O)O)cc3F)C2)c(Cl)c1 [Example 8, 6-(3-(2-chloro-4-((5-cyclopropyl-3-(2,6-dimethoxyphenyl)isoxazol-4-yl)methoxy)phenyl)-3-hydroxyazetidin-1-yl)-5-fluoronicotinic acid] | 15 | 593
12 | – | – | Cc1cc(Cl)c(-c2noc(C3CC3)c2COc2ccc(C3(O)CN(c4ncc(C(=O)O)cc4F)C3)c(Cl)c2)c(Cl)c1 [Example 9, 6-(3-(2-chloro-4-((5-cyclopropyl-3-(2,6-dichloro-4-methylphenyl)isoxazol-4-yl)methoxy)phenyl)-3-hydroxyazetidin-1-yl)-5-fluoronicotinic acid] | 57 | 26
13 | – | – | O=C(O)c1cnc(N2CC(O)(c3ccc(OCc4c(-c5c(Cl)cncc5Cl)noc4C4CC4)cc3Cl)C2)c(F)c1 [Example 10, 6-(3-(2-chloro-4-((5-cyclopropyl-3-(3,5-dichloropyridin-4-yl)isoxazol-4-yl)methoxy)phenyl)-3-hydroxyazetidin-1-yl)-5-fluoronicotinic acid] | 3.4 | 6.4
14 | – | – | O=C(O)c1cnc(N2CC(O)(c3ccc(OCc4c(C5CC5)cnn4-c4c(Cl)cccc4Cl)cc3Cl)C2)c(F)c1 [Example 11, 6-(3-(2-chloro-4-((4-cyclopropyl-1-(2,6-dichlorophenyl)-1H-pyrazol-5-yl)methoxy)phenyl)-3-hydroxyazetidin-1-yl)-5-fluoronicotinic acid] | 3.8 | 4.9
